Experimental data: ChEMBL document CHEMBL1201862, “PubChem BioAssay data set” (2004)
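Step 1: Grow cells in 96-well plates. Step 2: Expose to compound for 48 hours at 5 concentrations. Step 3: Interpolate endpoints linearly; if unreached, use highest concentration. Here, GI50 denotes the concentration required for 50% inhibition of growth.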 Active and inactive are the calls of the source. No stated cut-off is given here; in the data, active = GI50 up to about 1.1 µM and inactive = higher.

How the values were obtained:
Test in all cases: NCI tumour cell line growth inhibition, 48 h
[1] = system: SK-MEL-5
[2] = system: HOP-62
[3] = system: OVCAR-5
[4] = system: IGROV-1
[5] = system: HT-29
[6] = system: CAKI-1
[7] = system: RXF 393
[8] = system: DU-145
[9] = system: LOX IMVI
[10] = system: SK-OV-3
[11] = system: UACC-62
[12] = system: T47D
[13] = system: NCI-H226
[14] = system: SF-539
[15] = system: HOP-92
[16] = system: MDA-N
[17] = system: OVCAR-4
[18] = system: BT-549
[19] = system: SR
[20] = system: MOLT-4

Measured: GI50

Cc1ccc(/N=N/c2c(O)c3ccccc3[nH]c2=O)c(S(=O)(=O)N(C)C)c1
inactive: [1] > 100 µM | [2] > 100 µM | [3] > 100 µM | [4] > 100 µM | [5] > 100 µM | [6] > 100 µM | [7] > 100 µM | [8] > 100 µM | [9] > 100 µM | [10] > 100 µM | [11] > 100 µM | [12] > 100 µM | [13] > 100 µM | [14] > 100 µM | [15] > 100 µM | [16] > 100 µM | [17] > 100 µM | [18] > 100 µM

CN1CCC/C1=C1\C(=O)c2cccn2C1=O
inactive: [1] > 100 µM | [2] > 100 µM | [19] > 100 µM | [3] > 100 µM | [4] > 100 µM | [5] > 100 µM | [6] > 100 µM | [7] > 100 µM | [8] > 100 µM | [9] > 100 µM | [10] > 100 µM | [11] > 100 µM | [12] > 100 µM | [13] > 100 µM | [16] > 100 µM | [17] > 100 µM | [20] > 100 µM | [18] > 100 µM

CC(OC(=O)C(CC(=O)OC(C)(C)C)NC(=O)OC(C)(C)C)C(=O)OCc1ccccc1 (stereo unspecified)
inactive: [2] > 100 µM | [19] > 100 µM | [3] > 100 µM | [4] > 100 µM | [5] > 100 µM | [6] > 100 µM | [7] > 100 µM | [8] > 100 µM | [9] > 100 µM | [10] > 100 µM | [11] > 100 µM | [12] > 100 µM | [13] > 100 µM | [14] > 100 µM | [16] > 100 µM | [17] > 100 µM | [20] > 100 µM | [18] > 100 µM

O=C(O)C1(CC(CCCN2CCCCC2)c2ccccc2)CCCC1 (stereo unspecified)
inactive: [1] > 100 µM | [2] > 100 µM | [19] > 100 µM | [3] > 100 µM | [4] > 100 µM | [5] > 100 µM | [6] > 100 µM | [7] > 100 µM | [8] > 100 µM | [9] > 100 µM | [10] > 100 µM | [11] > 100 µM | [12] > 100 µM | [13] > 100 µM | [14] > 100 µM | [15] > 100 µM | [16] > 100 µM | [17] > 100 µM | [20] > 100 µM

CC(Oc1ccc(Cl)cc1Cl)C(=O)NN1C(=O)CSC1c1ccc(Cl)cc1 (stereo unspecified)
inactive: [1] 49.7 µM | [2] 33.6 µM | [19] 19.5 µM | [3] > 100 µM | [4] 36.1 µM | [5] 70.1 µM | [6] 18.9 µM | [7] 27 µM | [8] 63.5 µM | [9] 56 µM | [10] 54.3 µM | [11] 43.5 µM | [12] 42.5 µM | [13] 17.6 µM | [14] 20.5 µM | [15] 21 µM | [17] 35.3 µM | [20] 21.7 µM | [18] 43.7 µM

CN1CCN(Cc2nc3c(s2)CCc2sccc2-3)CC1
inactive: [1] 36.4 µM | [2] > 100 µM | [19] 36.1 µM | [3] > 100 µM | [4] > 100 µM | [5] 32.7 µM | [6] 37.7 µM | [7] 75.5 µM | [8] > 100 µM | [10] > 100 µM | [11] 24.8 µM | [12] 41.6 µM | [13] > 100 µM | [16] 48.6 µM | [17] > 100 µM | [20] 77.8 µM | [18] > 100 µM

N#CC(c1ccccc1)N(CCCCCCN(C(=O)c1ccccc1)C(C#N)c1ccccc1)C(=O)c1ccccc1 (stereo unspecified)
inactive: [1] 17.9 µM | [3] > 100 µM | [4] 52.6 µM | [5] 21.8 µM | [6] 32.1 µM | [7] 52.1 µM | [8] 41.3 µM | [9] 29.3 µM | [10] 41.4 µM | [11] 26.3 µM | [12] 28.5 µM | [13] 28.6 µM | [14] 41.5 µM | [15] 16.5 µM | [16] 45.1 µM | [17] 35 µM | [20] 34.4 µM | [18] 31.1 µM

CC1CCCc2c(-c3ccc(Cl)cc3)nc(N)c(C#N)c21 (stereo unspecified)
inactive: [1] 18.3 µM | [2] 19.2 µM | [19] 9.84 µM | [3] 43 µM | [4] 19.6 µM | [5] 30.6 µM | [6] 58.2 µM | [7] 27.2 µM | [8] 39 µM | [9] 24.2 µM | [10] 23.9 µM | [11] 18.9 µM | [12] 2.09 µM | [13] 18.4 µM | [14] 25.5 µM | [16] 24 µM | [20] 20 µM | [18] 20.2 µM

O=C(NC/C(Cl)=C/Cl)Nc1cccc2c1CCCC2
inactive: [1] > 100 µM | [2] > 100 µM | [19] 35.9 µM | [3] > 100 µM | [4] > 100 µM | [5] 38.5 µM | [6] 86.9 µM | [7] > 100 µM | [8] > 100 µM | [9] > 100 µM | [10] > 100 µM | [11] > 100 µM | [12] 97.9 µM | [13] > 100 µM | [14] > 100 µM | [15] 55.7 µM | [16] > 100 µM | [17] > 100 µM | [20] 29.5 µM

CC(=O)OC1COC(Nc2nc(NCc3ccccc3)n(C)c(=O)c2N=O)C(OC(C)=O)C1OC(C)=O (stereo unspecified)
inactive: [1] > 10 µM | [2] > 10 µM | [3] > 10 µM | [4] > 10 µM | [5] > 10 µM | [6] > 10 µM | [7] > 10 µM | [8] > 10 µM | [9] > 10 µM | [10] > 10 µM | [11] > 10 µM | [12] > 10 µM | [13] > 10 µM | [14] > 10 µM | [16] > 10 µM | [17] > 10 µM | [20] > 10 µM | [18] > 10 µM

COc1ccc(N[C@H](CSc2ccc(C)cc2)c2ccc(F)cc2)cc1
inactive: [1] 57.3 µM | [2] > 100 µM | [19] 25.2 µM | [3] > 100 µM | [4] > 100 µM | [5] > 100 µM | [6] > 100 µM | [7] 68.5 µM | [8] > 100 µM | [9] 29.4 µM | [10] > 100 µM | [11] 65.8 µM | [12] 24.6 µM | [14] > 100 µM | [16] 71.1 µM | [17] 67.5 µM | [20] 3.23 µM | [18] > 100 µM

CN(C)CCCNC1=C(Cl)C(=O)c2c(O)ccc(O)c2C1=O
inactive: [1] 1.5 µM | [2] 2.61 µM | [3] 1.59 µM | [4] 1.77 µM | [5] 2.17 µM | [6] > 10 µM | [8] 1.82 µM | [9] 1.67 µM | [10] > 10 µM | [11] 1.59 µM | [12] 2.09 µM | [13] > 10 µM | [14] 1.69 µM | [15] 8.2 µM | [16] 1.85 µM | [17] 1.49 µM | [20] 2.58 µM | [18] 1.6 µM

CCOc1ccc2nc3nc(O)nc(C)c3c(NC(C)(CO)CO)c2c1
inactive: [1] > 100 µM | [2] > 100 µM | [3] > 100 µM | [4] > 100 µM | [5] > 100 µM | [6] > 100 µM | [7] > 100 µM | [8] > 100 µM | [9] > 100 µM | [10] > 100 µM | [11] > 100 µM | [12] > 100 µM | [13] > 100 µM | [14] > 100 µM | [15] > 100 µM | [16] > 100 µM | [17] > 100 µM | [20] > 100 µM | [18] > 100 µM

COc1ccc2cc(C(C)C(O)c3cc(F)c(F)c(F)c3F)ccc2c1 (stereo unspecified)
inactive: [1] > 100 µM | [2] 26.2 µM | [3] > 100 µM | [4] > 100 µM | [5] > 100 µM | [8] > 100 µM | [9] > 100 µM | [10] > 100 µM | [11] > 100 µM | [12] 53.5 µM | [13] > 100 µM | [15] 18.6 µM | [16] > 100 µM | [17] 70.5 µM | [20] > 10 µM | [18] > 100 µM

O=C(O)c1cc(C(=O)C(=O)c2cc(C(=O)O)c(O)c3ccccc23)c2ccccc2c1O
inactive: [1] > 100 µM | [2] > 100 µM | [3] > 100 µM | [4] > 100 µM | [5] > 100 µM | [6] > 100 µM | [7] > 100 µM | [8] > 100 µM | [9] > 100 µM | [10] > 100 µM | [11] > 100 µM | [12] > 100 µM | [13] > 100 µM | [14] > 100 µM | [15] > 100 µM | [16] > 100 µM | [17] > 100 µM | [18] > 100 µM
